Laboratory results: a melting point compilation (Tetko et al.)

Structure (SMILES)	melting point
O=C(CBr)C(c1ccccc1)c1ccccc1	64 to 66 °C
NC(=S)C(c1ccccc1)c1ccccc1	143 to 146 °C
CC(OC(=O)Nc1ccccc1)c1cccc(C(C)OC(=O)Nc2ccccc2)c1 (centres undefined)	136 °C
O=Cc1c(F)cc(F)cc1F	66 °C
CC(=O)CC(=O)OCc1ccc([N+](=O)[O-])cc1	45 to 46.5 °C
O=C(O)C1(c2ccc(Cl)cc2)CCC1	80 to 90 °C
CCCCCN=C(N)NNC=C1C=Nc2ccc(CO)cc21	155 °C
COc1cccc2cc(C(=O)O)c(=O)oc12	214 to 216 °C
O=[N+]([O-])c1cc(C(F)(F)F)ccc1N1CCCCC1	48 to 50 °C
CCOC(=O)C1(S(=O)(=O)c2ccc(C)cc2)CC1	75.5 °C
CCCCC(CC)COP(=O)(O)OCC(CC)CCCC (centres undefined)	-50 °C
CCCCCCc1ccc(C#Cc2ccc(CC)cc2)cc1	10 °C
NS(=O)(=O)c1cnccc1Cl	150 to 155 °C
O=Cc1cccc(O)c1O	104 to 109 °C
O=S(=O)(O)CCCN1CCOCC1	284 °C
ClC1=C(Cl)C2(Cl)C3C4OC4C(Cl)C3C1(Cl)C2(Cl)Cl (centres undefined)	160 °C
Cc1cc(N2CCNCC2)c2ccccc2n1	101 to 103 °C
O=c1oc2c3c4c(cc2c2c1CCC2)CCCN4CCC3	149 °C
C/C=C/C(=O)O	72 °C
NC(=O)c1ccc(F)c(Cl)c1	146 °C
COC(=O)c1sc(-c2ccccc2)cc1N	147 to 149 °C
COC(=O)c1ccc(=O)oc1	70 °C
CNc1ccc(NC)c2c1C(=O)c1ccccc1C2=O	220 °C
O=Cc1[nH]ncc1Br	80 to 82 °C
Cc1ccc2ocnc2c1	43 °C
CCCCI	-103 °C

Structure (SMILES)	melting point
COc1ccc2c(c1OC)C(=O)OC2C1c2c(cc3c(c2OC)OCO3)CCN1C (centres undefined)	176 °C
CCOC(=O)c1c(SC)nn(C(=O)c2ccc(OC)cc2)c1N	160 °C
O=C(C1=NOC2C(=O)N(c3ccc(F)cc3)C(=O)C12)c1ccc(Cl)cc1 (centres undefined)	151 °C
c1ccc2c(c1)Sc1ccccc1N2CC1CN2CCC1CC2 (centres undefined)	130 °C
NNC(=O)c1cccc(Cl)c1	158 °C
CC(=O)/C=C/c1oc2ccc(Cl)cc2c1-c1ccc(C)o1	118 to 119 °C
CC(C)(C)OC(=O)N1CCN(Cc2cccc(C=O)c2)CC1	67 to 68 °C
CC(=O)OCC(=O)C12OC(C)(C)OC1CC1C3CC(C=O)=C4C=C(OCCCl)CCC4(C)C3(F)C(O)CC12C (centres undefined)	181 °C
CCOC(=O)c1cc(-c2ccc(Br)s2)on1	51 to 53 °C
OCc1ccc(-n2cccc2)cc1	102 to 105 °C
O=C(O)CS(=O)(=O)c1ccccc1	112 to 114 °C
NNC(=O)N1N=C(c2ccccc2)CCC1=O	166 to 168 °C
O=C1OC(OC2OC(=O)C(Cl)=C2Cl)C(Cl)=C1Cl (centres undefined)	142 °C
Cc1cccc([N+](=O)[O-])c1C	15 °C
O=C(O)c1cc(Cl)cc(Cl)c1Cl	166 °C
Fc1ccc(CN2CCNCC2)cc1	64 to 65 °C
O=[N+]([O-])c1ccccc1CBr	47 °C
O=C(O)C1=NN(c2ccccc2)C(=O)C1=CC1C(=O)N(c2ccccc2)N=C1C(=O)O (centres undefined)	257 to 260 °C
CC1=NN(c2ccccc2)C(=O)/C1=N\Nc1ccc(C(=O)O)cc1	313 °C
CC(=O)c1cc2ccccc2oc1=O	122 °C
CCCC(c1ccccc1)c1ccccc1	27 °C
COc1c(Br)c(C)c(Br)c(Br)c1OC	90 °C
CCNc1cc2oc(=O)cc(C)c2cc1C	168 to 170 °C
NC(=O)c1cc(Cl)cc(Cl)c1	160 to 162 °C
CCCCCCCCCCCCSC(C(=O)Nc1cc(C)c(O)c(C)c1C)c1ccccc1 (centres undefined)	130 °C
C[C@H](Cl)C(=O)O	4 °C

Structure (SMILES)	melting point
Cc1c(F)c(F)c(COC(=O)C2C(C=C(Cl)C(F)(F)F)C2(C)C)c(F)c1F (centres undefined)	44.6 °C
O=C(O)c1c(Cl)c(Cl)c(Cl)c(Cl)c1C(=O)Nc1cccc(Cl)c1Cl	198 °C
Ic1cccc2ccccc12	4 °C
Nc1ccccc1-c1cnco1	54 to 56 °C
Cc1ccc(S(=O)(=O)OCc2c(F)c(F)c(F)c(F)c2F)cc1	78 °C
Sc1cc(Cl)c(Cl)cc1Cl	117 to 118 °C
O=C(O)[C@@H]1Cc2ccc(O)cc2CN1	273 to 275 °C
Cc1ccccc1N1CCNCC1	48 to 52 °C
OCCN1CCN(c2nc3ccc(Cl)cc3s2)CC1	128 to 130 °C
CCOC(=O)c1c(SC)nc2ccc(Cl)cc2c1Cl	134 to 137 °C
O=C(OCC(COC(=O)c1ccccc1)OC(=O)c1ccccc1)c1ccccc1	76 °C
c1ccc(Nc2nc3ccccc3[nH]2)nc1	257 to 259 °C
CC(=O)Nc1ccccc1F	78 °C
Cc1cc(Cl)c(N=C=O)cc1N=C=O	62 °C
C#CCCC#C	-6 °C
CC(CCl)(CCl)C(=O)O	64 to 66 °C
Nc1n[nH]c(N)c1Cc1ccc2c(c1)OCO2	169 to 171 °C
N#CC(C#N)=C(SCc1ccccc1)SCc1ccccc1	82 °C
COC(=O)[C@H]1CC[C@H](C(=O)OC)CC1	67 to 70 °C
O=c1cc(-c2ccc(O)cc2)oc2cc(O)cc(O)c12	348 °C
CC(=O)C1(O)C(C)CC2C3CC=C4CC(O)CCC4(C)C3CCC21C (centres undefined)	224 to 230 °C
CC(=O)OCCOCCOC(C)=O	18 °C
COc1cccc(C(CCC(=O)O)C(C)(C)C(=O)O)c1 (centres undefined)	137 °C
Cc1c(-c2ccccc2)sc2ncnc(O)c12	247 to 249 °C
NC(=O)c1cc(F)cc(F)c1	156 °C
S=C1NC(=S)C(c2ccccc2)(c2ccccc2)N1	263 °C

Structure (SMILES)	melting point
COC(=O)c1cc2ccccc2[nH]1	151 to 153 °C
N#CC1=C(N)Oc2[nH]nc(C(F)(F)F)c2C1c1ccccc1Cl (centres undefined)	181 °C
C[C@H](C(=O)O)c1ccccc1	29 to 32 °C
Cc1nccn1-c1ccccc1N	132 to 134 °C
O=C1CC(=O)NCCNCCNCCNC(=O)CC(=O)NCCNCCNCCN1	199 to 202 °C
NC(CSc1ccccn1)=NO	100 °C
CCCCCOC(=O)CC	-73.1 °C
CCCCCCCCOc1ccc(NC(=O)c2ccc(CC)cc2)cc1	143 °C
CN1CC(C(=O)O)CC1=O (centres undefined)	152 °C
Cc1ccc2ccc(Cl)cc2n1	74 to 78 °C
CC(=O)c1ccc(O)c(O)c1	117 to 119 °C
O=Cc1ccccc1N1CCN(Cc2ccccc2)CC1	58 to 60 °C
CCOC(=O)c1sc(N)nc1C	177 to 178 °C
C=CC1C2=CCOC(=O)C2=COC1OC1OC(CO)C(O)C(O)C1O (centres undefined)	191 °C
Cc1oc(-c2ccccc2)nc1CC(=O)O	131 to 133 °C
N#CCSc1ccc(F)cc1	34 °C
CCOc1ccc(C=CC(=O)O)cc1	195 to 197 °C
COc1ccc([C@@H](O)[C@@H](CO)Oc2c(OC)cccc2OC)cc1OC	111 °C
CC(N)C(C)(C)C (centres undefined)	-20 °C
COc1cc(NC(=S)Nc2ccc(Br)cc2)c(C(c2ccc(C)o2)c2ccc(C)o2)cc1OC	167 °C
Cc1ccc(Cl)c(O)c1	46 °C
O=C1c2cccc([N+](=O)[O-])c2C(=O)c2cccc([N+](=O)[O-])c21	385 °C
Oc1ccc2ccccc2c1Br	84 °C
CN(N=O)C1=CC(=O)C2(C)CCC1C2(C)C (centres undefined)	167 °C
CC(=O)Nc1cc([N+](=O)[O-])c(C=Cc2ccccc2)cc1C=Cc1ccccc1	227 °C
Cn1c(S)nnc1-c1cccs1	153 to 156 °C

Structure (SMILES)	melting point
CC(C)=CCNC(=N)N	62.5 °C
Clc1ccc(Oc2ccc(Cl)cc2)cc1	30 °C
Cc1ccsc1C	-49 °C
CCCCCCCCCCCCCCCCCCN=C=O	20 °C
Cc1cc(O)no1	86.5 °C
C[Si](C)(C)N([Si](C)(C)C)[Si](C)(C)C	67 to 69 °C
O=C(O)c1ccc(C(=O)O)c2c(C(=O)O)ccc(C(=O)O)c12	320 °C
O=C(Cl)c1cccnc1Oc1ccc(Cl)cc1	79 to 80 °C
O=C1OC(=O)c2c(F)ccc(F)c21	217 to 221 °C
CNc1c(C=O)c(=O)n(C)c(=O)n1C	203 °C
CCOC(=O)CCCOc1ccc(Cl)cc1C	-1 °C
COC(=O)C(OC)C(=O)OC	11 to 12 °C
COCC(=NOCC(=O)OC)c1cc(Oc2ccc(C(F)(F)F)cc2Cl)ccc1[N+](=O)[O-]	58 °C
COc1ccc(C2C(=O)c3ccccc3C2=O)cc1	156 °C
Cc1ccc(-c2csnn2)cc1	73 to 75 °C
CC(C)Nc1cccnc1N1CCN(C(=O)c2cc3cc(NS(C)(=O)=O)ccc3[nH]2)CC1	226 °C
N#Cc1ccc(N2CCC(C(=O)NN)CC2)cc1	198 to 202 °C
Cc1ccc(Sc2ccc([N+](=O)[O-])cc2C=O)cc1	157 to 158 °C
Cc1cccc(C)c1NC(=O)CCl	148 °C
Nc1cc(C(F)(F)F)ccc1Cl	10 °C
C=CC(=O)Nc1ccc2c(c1)OCCOCCOCCOCCOCCO2	108 to 112 °C
CCNc1ccc([N+](=O)[O-])cc1[N+](=O)[O-]	108 to 119 °C
Cc1cc(C)c2cnn(-c3ccccc3)c2n1	66 °C
CC1CCC(C)(C(=O)N(C(=O)C2(C)CCC(C)C2(C)C)c2ccccc2)C1(C)C (centres undefined)	212 °C
Oc1ccc(C2=Cc3ccccc3C(c3ccccc3)O2)cc1 (centres undefined)	121 °C
